{"source": "patent US12599646B2", "about": "“Peptide-containing composition for use for treating neoplastic lesions” (CYTOVATION ASA, priority 2020, dated 2026)", "key": {"[1]": {"tested_on": "neoplastic cells", "conditions": "as shown in WO 2011/092347; cited from earlier work"}, "[2]": {"test": "Saturated solubility of CyPep-1 in liquid excipients", "assay_type": "physicochemical", "conditions": "25° C.", "method": "A sample of the saturated supernatant was examined using light microscopy with a magnification of 200-1000× using a LEICA® (Germany) DME light microscope. The saturated supernatant was mounted on a microscope slide and examined immediately using both polarised and non-polarised light for the presence of CyPep-1 crystals. The dilution (Step (vii)) was performed immediately after the centrifugation step. • (vii) Since the solubility of CyPep-1 in these excipients was unknown, an appropriate dilution was made to achieve a concentration of CyPep-1 in sample diluent (deionised water) that was above the limit of quantification of the HPLC method, prior to analysis. For excipients which were saturated following the addition of ca. 20 mg of CyPep-1 the following dilution was performed: • (a) Into a 10 mL volumetric flask ca. 50 mg of the saturated solution was weighed. • (b) The volumetric flask from Step (a) was made to volume with sample diluent (deionised water) and vortex mixed for 30 s. • (c) An aliquot of the diluted sample from Step (b) was transferred to an HPLC vial and analysed by HPLC as described above. • (viii) For excipients which were saturated following the addition of ca. 40 mg of CyPep-1 the dilution was performed as detailed in Step (vii), however a 20 mL volumetric flask was used. Stability Testing—Method"}, "[3]": {"test": "Short-term stability testing: percentage recovery of CyPep-1 from formulations", "conditions": "40° C., t=2 weeks", "description": "HPLC was performed using a PHENOMENEX® (USA) KINETEX® C18 5 μm 100 Å 4.6×250 mm column and a PHENOMENEX® SecurityGuard C18 5 μm guard column, as follows:\nThe optimal extraction method developed was performed as follows: • (i) 150 mg formulation was weighed into a 10 ml volumetric flask. • (ii) The flask was made up to volume with 50:50 v/v water:ethanol. • (iii) The volumetric flask was vortex-mixed for 30 s to disperse the formulation, yielding an extraction solution containing CyPep-1 at a concentration of 150 μg/ml. • (iv) A PTFE magnetic stirrer was added to the volumetric flask from Step (iii) and the contents of the volumetric flask was stirred for 2 h at 500 rpm. • (v) The extraction solution from Step (iv) was transferred to centrifuge tubes and the samples were centrifuged at 16,000×g for 10 min at 25° C. • (vi) The supernatant was filtered using a 0.2 μm PTFE filter.\nThe obtained, filtered solution was used for HPLC analysis.\nThe 10 formulations described above which were not discarded were taken into stability testing. Samples of the formulations were stored at 2-8° C., 25° C. and 40° C. After 2 weeks, samples stored at 25° C. and 40° C. were assessed; after 4 weeks and 11 weeks samples stored at 2-8° C. and 25° C. were assessed.\nStability of CyPep-1 in each formulation was determined based on how much CyPep-1 could be recovered at each time point at each temperature. […]"}}, "note": "Square brackets hold non-standard residues; d marks the D form. Peptide text beside a SMILES is read from it."}
{"smiles": "CC[C@@H](C)[C@@H](NC(=O)[C@@H](C)NC(=O)[C@@H](CCCCN)NC(=O)[C@@H](C)NC(=O)[C@H](NC(=O)[C@@H](CCCNC(=N)N)NC(=O)[C@@H](CC(C)C)NC(=O)[C@H](NC(=O)[C@@H](CCCCN)NC(=O)CNC(=O)[C@@H](CCCNC(=N)N)NC(=O)[C@@H](CCCNC(=N)N)NC(=O)[C@@H](CCCNC(=N)N)NC(=O)[C@@H](CCC(N)=O)NC(=O)[C@@H](CCCNC(=N)N)NC(=O)[C@@H](CCCNC(=N)N)NC(=O)[C@@H](CCCCN)NC(=O)[C@@H](CCCCN)NC(=O)[C@@H](CCCNC(=N)N)NC(=O)CNC(=O)[C@H](N)Cc1ccc(O)cc1)[C@H](C)O)C(C)C)C(=O)N[C@H](Cc1ccc(O)cc1)C(=O)N[C@H](CCCCN)C(=O)N[C@H](CCCNC(=N)N)C(=O)N[C@H](Cc1ccc(O)cc1)C(=O)N[C@@H](C(=O)N[C@H](CCC(=O)O)C(=O)O)[C@H](C)CC", "note": "[CyPep-1] (H-[dY]G[dR][dK][dK][dR][dR][dQ][dR][dR][dR]G[dK][dT][dL][dR][dV][dA][dK][dA][dI][dY][dK][dR][dY][dI][dE]-OH; N-terminus and C-terminus assumed)", "values": [{"measurement": "cytotoxicity to neoplastic cells", "setting": "[1]", "value": "selectively cytotoxic"}, {"measurement": "saturated solubility of CyPep-1", "setting": "[2]; benzyl alcohol", "value": "more than 10 % w/w"}, {"measurement": "saturated solubility of CyPep-1", "setting": "[2]; deionised water (pH 4, 5, 6 or 7)", "value": "more than 10 % w/w"}, {"measurement": "saturated solubility of CyPep-1", "setting": "[2]; ethanol", "value": "more than 10 % w/w"}, {"measurement": "saturated solubility of CyPep-1", "setting": "[2]; phenoxyethanol", "value": "more than 10 % w/w"}, {"measurement": "stability of CyPep-1 in cream and ointment formulations", "setting": "[3]", "value": "unstable"}]}
